Measured values: patent publication US20230398098A1, “TOPICAL DETOMIDINE FORMULATIONS” (Clexio Biosciences Ltd., priority 2020, published 2023)
Where a name gives a salt, the structure may show the parent alone.

Experiments:
Assay type in all cases: physicochemical
[1] = Aldehyde impurity assessment: aqueous stock solutions exposed to air, HPLC of RRT = 0.38; conditions: 7.4 wt % detomidine HCl in water; for RRT = 0.38 content at 2 years: exposed to air at room temperature; for Initial RRT = 0.38 content: time zero
Experimental: Therefore, for further identification of the elusive impurity, new HPLC protocols for assaying detomidine HCl were developed. One protocol (“HPLC Protocol A”) comprised using a SunFire C8 column, 100Å, 3.5 μm, 4.6×150 mm column with an initial mobile phase of 70% Ammonium Phosphate buffer solution, pH 7.9 and 30% Acetonitrile, at a flow rate of 1.0 mL/min and UV detection at 220 nm. To remove late eluting peaks, the flush gradient shown in Table 5 was applied after each run. This HPLC protocol allowed for a resolution factor of 3.9 between detomidine and the unidentified impurity. The quantitation level (QL) for impurities and degradation products is 0.025%. The detection level (DL) for impurities and degradation products is 0.01%.
Stock solutions of 7.4 wt % detomidine HCl in water were prepared using material from Table 6, Batch #iv and v and the samples were then kept exposed to air at room temperature for 2 years.

[2] = Oxidation with potassium permanganate in aqueous solution, HPLC of RRT = 0.38; conditions: 3 hours after solution preparation
Experimental: A further sample of material from Table 6, Batch #v was reacted with potassium permanganate in aqueous solution. RRT=0.38 was found in the reaction product at 0.14% at 3 hours after solution preparation.

[3] = Hydration study of solid forms by DVS analysis
Experimental: Melting points (m.p.) of the intermediate detomidine free base and hydrochloride of Sample 5 measured in open capillary corresponded with the published literature and the DSC data and are presented in Table 4. In order to evaluate effect of humidity on different forms of detomidine, a hydration study was performed. Samples of detomidine free base and hydrochloride salt were subjected to DVS analysis. These observations are in accordance with the DVS results shown in FIGS. 1 and 2, for detomidine free base and detomidine HCl, respectively.
During the dehydration cycle, the monohydrate began to lose water at RH˜10% and converted into the anhydrate at RH=0%.

[4] = Solubility of solid forms in water (observation)

Structure (SMILES): Cc1cccc(Cc2cnc[nH]2)c1C.Cl.O [Batch iv]
- RRT = 0.38 content at 2 years ([1]; listed as iv): 1%
- Initial RRT = 0.38 content ([1]; listed as iv): 0.2%

Structure (SMILES): Cc1cccc(Cc2cnc[nH]2)c1C.Cl.O [Batch v]
- RRT = 0.38 content at 2 years ([1]; listed as v): 0.02%
- Initial RRT = 0.38 content ([1]; listed as v): not detectable
- RRT=0.38 in the reaction product [2]: 0.14%

Structure (SMILES): Cc1cccc(Cc2c[nH]cn2)c1C.Cl [Sample 2]
- water level absorbed, cKF ([3]; hydration of the anhydrous form): 7.7%

Structure (SMILES): Cc1cccc(Cc2c[nH]cn2)c1C [anhydrous detomidine HCl]
- RH at which the anhydrate absorbs water / transforms completely into the monohydrate ([3]; DVS): 30-50%
- RH at which the anhydrate did not absorb water ([3]; DVS): < 30%

Structure (SMILES): Cc1cccc(Cc2c[nH]cn2)c1C [detomidine HCl monohydrate]
- RH at which the monohydrate began to lose water ([3]; dehydration cycle, DVS): ~10%
- RH at which the monohydrate converted into the anhydrate ([3]; dehydration cycle, DVS): 0%

Structure (SMILES): Cc1cccc(Cc2c[nH]cn2)c1C [detomidine free base, 4-[(2,3-dimethylphenyl)methyl]-1H-Imidazole]
- hygroscopicity ([3]; DVS, 24.4° C. (FIG. 1)): non-hygroscopic
- water absorbed ([3]; at relative humidity (RH)>50%): more than 1%
- solubility in water [4]: insoluble in water

Structure (SMILES): Cc1cccc(Cc2c[nH]cn2)c1C [detomidine hydrochloride]
- solubility in water [4]: soluble
